From US20170274005A1, “TREATMENT OF RETINITIS PIGMENTOSA USING HYALURONIC ACID-CARBON NANOMATERIAL-PHOTOSENSITIZER COMPLEX” (POSTECH ACADEMY-INDUSTRY FOUNDATION, priority 2016, published 2017)

Key:
[1] = Analysis of prevention of active oxygen using DPPH; conditions: aqueous solution, 0 to 100 μg/mL based on the amount of Ce6, FIG. 2
[2] = test system: retinal pigment epithelium cell; test: MTT assay of retinal pigment epithelium cell treated using sodium iodate; assay type: cell-based; conditions: pre-treatment, then 5 mM sodium iodate, 24 hours, FIG. 5

Question: Which “active oxygen suppression ability” value [1] does the source give for chlorine e6 [Ce6] here?
Answer: The value was 60%.

Question: What about the “viability of the pre-treated cell versus cell treated using sodium iodate only” value [2] of the same substance?
Answer: Its value is “lower”.
